Measured values from PubChem BioAssay AID256 (DTP/NCI, 2004).
“And” between values parts separate entries of the source, which are not always exact repeats. Equal entries are not always repeated. Inconclusive results and toxic doses are left out. The calls were made as follows: active = survival T/C of 150% or more; inactive = T/C below 125% in these data.

Test system: CD2F1 mice, L1210 leukemia ip, survival T/C
Test: NCI In Vivo Anticancer Drug Screen. Data for tumor model L1210 Leukemia (intraperitoneal) in CD2F1 (CDF1) mice
Details: higher = longer survival
Outline: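 Tumor-bearing mice (transplanted tumor) were split into treated and vehicle control groups, and the measured endpoint of each treated group was divided by that of its vehicle controls.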

[1] = endpoint: mean survival time, dose: 100.0 mg/kg/injection, schedule: Q01DX009 (ip), vehicle: saline with Tween-80
[2] = endpoint: mean survival time, dose: 100.0 mg/kg/injection, schedule: Q04DX003 (ip), vehicle: saline with Tween-80
[3] = endpoint: mean survival time, dose: 200.0 mg/kg/injection, schedule: Q01DX009 (ip), vehicle: saline with Tween-80
[4] = endpoint: mean survival time, dose: 200.0 mg/kg/injection, schedule: Q04DX003 (ip), vehicle: saline with Tween-80
[5] = endpoint: mean survival time, dose: 400.0 mg/kg/injection, schedule: Q01DX009 (ip), vehicle: saline with Tween-80
[6] = endpoint: mean survival time, dose: 400.0 mg/kg/injection, schedule: Q04DX003 (ip), vehicle: saline with Tween-80
[7] = endpoint: mean survival time, dose: 6.25 mg/kg/injection, schedule: Q01DX009 (ip), vehicle: saline with Tween-80
[8] = endpoint: mean survival time, dose: 12.5 mg/kg/injection, schedule: Q01DX009 (ip), vehicle: saline with Tween-80
[9] = endpoint: mean survival time, dose: 25.0 mg/kg/injection, schedule: Q01DX009 (ip), vehicle: saline with Tween-80
[10] = endpoint: mean survival time, dose: 50.0 mg/kg/injection, schedule: Q01DX009 (ip), vehicle: Klucel (hydroxypropylcellulose) (HPC)
[11] = endpoint: mean survival time, dose: 50.0 mg/kg/injection, schedule: Q01DX009 (ip), vehicle: saline with Tween-80
[12] = endpoint: mean survival time, dose: 100.0 mg/kg/injection, schedule: Q01DX001 (ip), vehicle: saline with Tween-80
[13] = endpoint: mean survival time, dose: 200.0 mg/kg/injection, schedule: Q01DX001 (ip), vehicle: saline with Tween-80
[14] = endpoint: mean survival time, dose: 400.0 mg/kg/injection, schedule: Q01DX001 (ip), vehicle: saline with Tween-80
[15] = endpoint: mean survival time, dose: 100.0 mg/kg/injection, schedule: Q01DX001 (ip), vehicle: saline
[16] = endpoint: mean survival time, dose: 200.0 mg/kg/injection, schedule: Q01DX001 (ip), vehicle: saline
[17] = endpoint: mean survival time, dose: 400.0 mg/kg/injection, schedule: Q01DX001 (ip), vehicle: saline
[18] = endpoint: mean survival time, dose: 100.0 mg/kg/injection, schedule: Q04DX002 (ip), vehicle: saline with Tween-80
[19] = endpoint: mean survival time, dose: 200.0 mg/kg/injection, schedule: Q04DX002 (ip), vehicle: saline with Tween-80

Measured: T/C

[C-]#[O+].[Cl][Sn]([Cl])[Cl].[Cl][Sn]([Cl])[Cl].[Pt].c1ccncc1
inactive: endpoint: median survival time, dose: 3.12 mg/kg/injection, schedule: Q04DX003 (ip), vehicle: saline with Tween-80 113 % of control | endpoint: median survival time, dose: 6.25 mg/kg/injection, schedule: Q04DX003 (ip), vehicle: saline with Tween-80 110 % of control | endpoint: median survival time, dose: 12.5 mg/kg/injection, schedule: Q04DX003 (ip), vehicle: saline with Tween-80 110 % of control | endpoint: median survival time, dose: 25.0 mg/kg/injection, schedule: Q04DX003 (ip), vehicle: saline with Tween-80 102 % of control | endpoint: median survival time, dose: 50.0 mg/kg/injection, schedule: Q04DX003 (ip), vehicle: saline with Tween-80 108 % of control | endpoint: median survival time, dose: 100.0 mg/kg/injection, schedule: Q04DX003 (ip), vehicle: saline with Tween-80 108 % of control | endpoint: median survival time, dose: 200.0 mg/kg/injection, schedule: Q04DX003 (ip), vehicle: saline with Tween-80 120 % of control

O=P(N1CCCCCC1)(N1CCCCCC1)N1CCCCCC1.O=[N+]([O-])O.O=[N+]([O-])O.[O]=[U]=[O]
inactive: endpoint: mean survival time, dose: 6.25 mg/kg/injection, schedule: Q04DX003 (ip), vehicle: Klucel (hydroxypropylcellulose) (HPC) 109 % of control

COc1ccccc1NC(=O)Oc1ccc(OCc2ccccc2)cc1
inactive: [1] 94 % of control | [2] 108 % of control | [3] 88 % of control | [4] 100 % of control | [5] 87 % of control | [6] 95 % of control

OC1CCCC2CCCNC12 (configuration not stated)
inactive: endpoint: mean survival time, dose: 1.25 mg/kg/injection, schedule: Q01DX009 (ip), vehicle: Klucel (hydroxypropylcellulose) (HPC) 109 % of control | endpoint: mean survival time, dose: 3.12 mg/kg/injection, schedule: Q01DX009 (ip), vehicle: saline with Tween-80 98 % of control | [7] 88 % of control | [8] 103 % of control | endpoint: mean survival time, dose: 25.0 mg/kg/injection, schedule: Q01DX009 (ip), vehicle: Klucel (hydroxypropylcellulose) (HPC) 107 % of control | [9] 104 % of control | [10] 98 % of control | [11] 110 % of control

CC(C)(C)C#C/C(=N\Nc1ccc([N+](=O)[O-])cc1[N+](=O)[O-])c1ccccc1
inactive: [12] 94 % of control | [13] 89 % of control | [14] 86 % of control

COc1ccccc1C(=O)C1N=C(c2ccccc2)OC1=O (configuration not stated)
inactive: [15] 98 % of control | [16] 97 % of control | [17] 97 % of control

CC([NH-])C(=O)O.[Cl][Pt][Cl] (configuration not stated)
inactive: endpoint: mean survival time, dose: 25.0 mg/kg/injection, schedule: Q04DX003 (ip), vehicle: saline 121 % of control | endpoint: mean survival time, dose: 50.0 mg/kg/injection, schedule: Q04DX003 (ip), vehicle: saline 110 % of control

OCCN1CCN(CCCN2c3ccccc3Sc3ccc(C(F)(F)F)cc32)CC1
inactive: endpoint: mean survival time, dose: 1.49 mg/kg/injection, schedule: Q01DX009 (ip), vehicle: saline 110 % of control | endpoint: mean survival time, dose: 2.27 mg/kg/injection, schedule: Q01DX009 (ip), vehicle: saline 113 % of control | endpoint: mean survival time, dose: 3.4 mg/kg/injection, schedule: Q01DX009 (ip), vehicle: saline 121 % of control | endpoint: mean survival time, dose: 5.0 mg/kg/injection, schedule: Q04DX003 (ip), vehicle: saline 116 % of control | endpoint: mean survival time, dose: 6.6 mg/kg/injection, schedule: Q04DX003 (ip), vehicle: saline sonified 100 % of control | endpoint: mean survival time, dose: 6.6 mg/kg/injection, schedule: Q04DX003 (ip), vehicle: saline 108 % of control | endpoint: mean survival time, dose: 10.0 mg/kg/injection, schedule: Q04DX003 (ip), vehicle: saline sonified 101 % of control | endpoint: mean survival time, dose: 10.0 mg/kg/injection, schedule: Q04DX003 (ip), vehicle: saline 116 % of control | endpoint: mean survival time, dose: 15.0 mg/kg/injection, schedule: Q04DX003 (ip), vehicle: saline 114 % of control and 94 % of control | endpoint: mean survival time, dose: 20.0 mg/kg/injection, schedule: Q04DX003 (ip), vehicle: saline 106 % of control | endpoint: mean survival time, dose: 30.0 mg/kg/injection, schedule: Q04DX003 (ip), vehicle: saline 75 % of control

CC(C)(O)C#CC(C)(C)O
inactive: endpoint: mean survival time, dose: 100.0 mg/kg/injection, schedule: Q04DX003 (ip), vehicle: saline 101 % of control | endpoint: mean survival time, dose: 200.0 mg/kg/injection, schedule: Q04DX003 (ip), vehicle: saline 101 % of control | endpoint: mean survival time, dose: 400.0 mg/kg/injection, schedule: Q04DX003 (ip), vehicle: saline 97 % of control

COc1ccc(NC(=O)CCl)c(OC)c1
inactive: [18] 108 % of control | [19] 97 % of control | endpoint: mean survival time, dose: 400.0 mg/kg/injection, schedule: Q04DX002 (ip), vehicle: saline with Tween-80 97 % of control

Nc1nc2c(c(=O)[nH]1)N(C(=S)Nc1ccccc1)C(CNc1ccc(C(=O)NC(CCC(=O)O)C(=O)O)cc1)CN2 (configuration not stated)
inactive: [15] 101 % of control | [16] 101 % of control | [17] 104 % of control

CC(=O)Nc1cccc(N(CCOS(C)(=O)=O)CCOS(C)(=O)=O)c1
inactive: endpoint: mean survival time, dose: 0.5 mg/kg/injection, schedule: Q01DX009 (ip), vehicle: saline 122 % of control

N=C(N)c1ccc(OCCCCOc2ccc(N)cc2)cc1
inactive: [10] 101 % of control | endpoint: mean survival time, dose: 100.0 mg/kg/injection, schedule: Q01DX009 (ip), vehicle: Klucel (hydroxypropylcellulose) (HPC) 94 % of control | endpoint: mean survival time, dose: 200.0 mg/kg/injection, schedule: Q01DX009 (ip), vehicle: Klucel (hydroxypropylcellulose) (HPC) 119 % of control

O=C(COc1ccc(Cl)c(Cl)c1)Nc1ccc(Cl)cc1
inactive: [7] 98 % of control | [8] 98 % of control | [9] 98 % of control

c1cncc(-c2nnc(-c3cccnc3)o2)c1
inactive: endpoint: mean survival time, dose: 1.56 mg/kg/injection, schedule: Q04DX002 (ip), vehicle: saline with Tween-80 101 % of control | endpoint: mean survival time, dose: 3.13 mg/kg/injection, schedule: Q04DX002 (ip), vehicle: saline with Tween-80 104 % of control | endpoint: mean survival time, dose: 6.25 mg/kg/injection, schedule: Q04DX002 (ip), vehicle: saline with Tween-80 104 % of control | endpoint: mean survival time, dose: 12.5 mg/kg/injection, schedule: Q04DX002 (ip), vehicle: saline with Tween-80 104 % of control | [18] 87 % of control | [19] 87 % of control

CC(O)C(NC(=O)OC(C)(C)C)C(=O)ON1C(=O)CCC1=O (configuration not stated)
inactive: [9] 92 % of control | [11] 94 % of control | [1] 96 % of control and 98 % of control

COC1NC(=O)NC(=O)C1=[N+]=[N-] (configuration not stated)
inactive: endpoint: mean survival time, dose: 2.5 mg/kg/injection, schedule: Q01DX009 (ip), vehicle: saline with Tween-80 113 % of control

CC(C)CCCC(C)C1CCC2C3C(O)C=C4CC(OC(=O)CCC(C)C)CCC4(C)C3CCC12C (configuration not stated)
inactive: [1] 94 % of control | [3] 91 % of control | [5] 100 % of control

O=C(O)Cc1cccnc1
inactive: endpoint: mean survival time, dose: 100.0 mg/kg/injection, schedule: Q01DX009 (ip), vehicle: saline 98 % of control | endpoint: mean survival time, dose: 200.0 mg/kg/injection, schedule: Q01DX009 (ip), vehicle: saline 102 % of control | endpoint: mean survival time, dose: 400.0 mg/kg/injection, schedule: Q01DX009 (ip), vehicle: saline 110 % of control

O=C(O)CC[P+](c1ccccc1)(c1ccccc1)c1ccccc1
inactive: [1] 95 % of control | [3] 92 % of control | [5] 89 % of control

COC(=O)CCC(NC(=O)c1cccc(N(C)C=O)c1)C(=O)OC (configuration not stated)
inactive: [12] 104 % of control | [2] 100 % of control | [13] 115 % of control | [4] 100 % of control | [14] 104 % of control | [6] 96 % of control

O=C(OCC1OCOC(COC(=O)c2ccccc2)C(O)C1O)c1ccccc1 (configuration not stated)
inactive: [2] 97 % of control | [4] 97 % of control | [6] 86 % of control

N#CSCc1ccc(Cl)c(CSC#N)c1
inactive: endpoint: mean survival time, dose: 18.8 mg/kg/injection, schedule: Q01DX009 (ip), vehicle: saline 108 % of control | endpoint: mean survival time, dose: 18.8 mg/kg/injection, schedule: Q04DX003 (ip), vehicle: saline 103 % of control | endpoint: mean survival time, dose: 37.5 mg/kg/injection, schedule: Q01DX009 (ip), vehicle: saline 108 % of control | endpoint: mean survival time, dose: 37.5 mg/kg/injection, schedule: Q04DX003 (ip), vehicle: saline 105 % of control | endpoint: mean survival time, dose: 75.0 mg/kg/injection, schedule: Q01DX001 (ip), vehicle: saline 96 % of control | endpoint: mean survival time, dose: 75.0 mg/kg/injection, schedule: Q01DX009 (ip), vehicle: saline 108 % of control | endpoint: mean survival time, dose: 75.0 mg/kg/injection, schedule: Q04DX003 (ip), vehicle: saline 109 % of control
